Calls of active or inactive are those of the source.
Legend:
[1] = cytotoxicity in HMLE control line with eGFP shRNA, dose response, counter-screen for HMLE_sh_ECad selective toxicity project, cell-based, HMLE_sh_eGFP, luminescence (AID 463074); format: functional, Homo sapiens;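 also: HMLE human mammary epithelial cells expressing control shRNA against eGFP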
Streptococcus = test: Group A Streptococcus viability loss, dose response, counter-screen for streptokinase expression inhibitor project, luminescence, BacTiterGlo (AID 1915); format: functional, organism-based;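 also: potency for reduction of bacterial viability or growth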
[2] = Luminescence Cell-Based Dose Retest to Confirm Inhibitors of Cancer Stem Cells. [Related pubchem assays (depositor defined):AID2717, AID2721]; format: functional; details: Homo sapiens
[3] = tested on: Streptococcus sp. 'group A'; test: growth inhibition of control SK(-) GAS strain, dose response, counter-screen for streptokinase expression inhibitor project, luminescence, kanamycin, BacTiterGlo, confirmation (AID 1900); format: functional, organism-based
Streptokinase A = molecular target: T1, Streptokinase A (Streptococcus pyogenes serotype M1, UniProt P10520); test: S. pyogenes streptokinase expression inhibitors, potency, dose response, plasminogen activation absorbance, OD405 (AID 1914); format: functional, Streptococcus pyogenes M1 GAS;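 also: secreted streptokinase activity via plasminogen activation per viability signal from cell pellet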
T1 sequence (P10520 whole entry): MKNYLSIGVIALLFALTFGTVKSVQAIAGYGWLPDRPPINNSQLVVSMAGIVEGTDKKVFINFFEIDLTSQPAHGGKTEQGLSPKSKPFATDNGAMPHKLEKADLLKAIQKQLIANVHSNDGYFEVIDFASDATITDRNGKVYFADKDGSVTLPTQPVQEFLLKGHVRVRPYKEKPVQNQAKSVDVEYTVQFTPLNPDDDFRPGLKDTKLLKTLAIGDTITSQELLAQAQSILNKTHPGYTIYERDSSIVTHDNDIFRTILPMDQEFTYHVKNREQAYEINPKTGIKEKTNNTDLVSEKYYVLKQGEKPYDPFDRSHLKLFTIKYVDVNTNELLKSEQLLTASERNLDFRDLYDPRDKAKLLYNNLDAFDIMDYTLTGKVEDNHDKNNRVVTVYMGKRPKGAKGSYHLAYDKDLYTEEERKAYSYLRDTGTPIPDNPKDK

[4] = molecular target: T2, Tyrosine-protein phosphatase non-receptor type 7 (Homo sapiens, UniProt P35236); test: redox-dependent HePTP inhibition, mechanism study, biochemical, fluorescence (AID 2068); format: functional
T2 sequence (P35236 whole entry): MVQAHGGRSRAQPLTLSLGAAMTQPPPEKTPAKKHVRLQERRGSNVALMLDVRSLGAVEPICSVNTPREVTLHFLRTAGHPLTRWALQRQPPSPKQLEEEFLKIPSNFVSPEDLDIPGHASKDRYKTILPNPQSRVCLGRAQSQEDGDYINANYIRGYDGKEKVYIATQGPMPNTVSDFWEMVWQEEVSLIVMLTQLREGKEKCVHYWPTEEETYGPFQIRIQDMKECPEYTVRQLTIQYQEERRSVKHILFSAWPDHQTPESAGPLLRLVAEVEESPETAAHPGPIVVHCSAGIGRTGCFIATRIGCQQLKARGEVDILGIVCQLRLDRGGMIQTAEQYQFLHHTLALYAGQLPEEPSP

[5] = molecular target: Dual specificity protein phosphatase 3 (Homo sapiens, UniProt P51452); test: SAR VHR1 Fluorescent Assay for In Vitro dose response studies Set 2. [Related pubchem assays (depositor defined):AID1654, AID1661, AID1878]; format: functional
Sequence of Dual specificity protein phosphatase 3 (P51452 whole entry): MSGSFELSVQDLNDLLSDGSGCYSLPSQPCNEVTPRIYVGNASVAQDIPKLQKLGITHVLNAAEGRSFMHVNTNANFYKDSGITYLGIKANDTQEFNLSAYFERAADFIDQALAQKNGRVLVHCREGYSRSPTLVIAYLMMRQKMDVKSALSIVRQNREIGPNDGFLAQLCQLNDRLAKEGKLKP

[6] = molecular target: Dual specificity protein phosphatase 6 (Rattus norvegicus, UniProt Q64346); format: functional;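 also: confirmatory in vitro dose-response testing of MKP-3 inhibition; recombinant His-tagged MKP-3 made in E. coli BL21 with OMFP substrate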
Sequence of Dual specificity protein phosphatase 6 (Q64346 whole entry): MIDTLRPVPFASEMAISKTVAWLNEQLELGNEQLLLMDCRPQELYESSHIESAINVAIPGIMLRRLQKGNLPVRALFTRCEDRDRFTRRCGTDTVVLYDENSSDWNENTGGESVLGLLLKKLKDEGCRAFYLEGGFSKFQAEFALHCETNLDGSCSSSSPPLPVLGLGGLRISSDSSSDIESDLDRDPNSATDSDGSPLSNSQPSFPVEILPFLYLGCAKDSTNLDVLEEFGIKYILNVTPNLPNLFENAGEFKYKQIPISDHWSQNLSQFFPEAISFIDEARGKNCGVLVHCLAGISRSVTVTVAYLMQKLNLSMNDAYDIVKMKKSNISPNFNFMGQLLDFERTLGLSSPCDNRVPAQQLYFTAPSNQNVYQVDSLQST

[7] = HEp-2 cell cytotoxicity, dose response, cytotoxicity control for RSV inhibitor project, HTS (AID 2410); format: functional; details: human respiratory syncytial virus
Candida albicans = test: growth inhibition of resistant C. albicans, dose response, CaCi-8, fluconazole, Alamar Blue, dry powder (AID 488807); format: functional, organism-based
[8] = molecular target: T3, Sentrin-specific protease 7 (Homo sapiens, UniProt Q9BQF6); test: SENP7 protease inhibitors, SAR follow-up, biochemical, luminescence, set 2 (AID 588600); format: functional
T3 sequence (Q9BQF6 whole entry): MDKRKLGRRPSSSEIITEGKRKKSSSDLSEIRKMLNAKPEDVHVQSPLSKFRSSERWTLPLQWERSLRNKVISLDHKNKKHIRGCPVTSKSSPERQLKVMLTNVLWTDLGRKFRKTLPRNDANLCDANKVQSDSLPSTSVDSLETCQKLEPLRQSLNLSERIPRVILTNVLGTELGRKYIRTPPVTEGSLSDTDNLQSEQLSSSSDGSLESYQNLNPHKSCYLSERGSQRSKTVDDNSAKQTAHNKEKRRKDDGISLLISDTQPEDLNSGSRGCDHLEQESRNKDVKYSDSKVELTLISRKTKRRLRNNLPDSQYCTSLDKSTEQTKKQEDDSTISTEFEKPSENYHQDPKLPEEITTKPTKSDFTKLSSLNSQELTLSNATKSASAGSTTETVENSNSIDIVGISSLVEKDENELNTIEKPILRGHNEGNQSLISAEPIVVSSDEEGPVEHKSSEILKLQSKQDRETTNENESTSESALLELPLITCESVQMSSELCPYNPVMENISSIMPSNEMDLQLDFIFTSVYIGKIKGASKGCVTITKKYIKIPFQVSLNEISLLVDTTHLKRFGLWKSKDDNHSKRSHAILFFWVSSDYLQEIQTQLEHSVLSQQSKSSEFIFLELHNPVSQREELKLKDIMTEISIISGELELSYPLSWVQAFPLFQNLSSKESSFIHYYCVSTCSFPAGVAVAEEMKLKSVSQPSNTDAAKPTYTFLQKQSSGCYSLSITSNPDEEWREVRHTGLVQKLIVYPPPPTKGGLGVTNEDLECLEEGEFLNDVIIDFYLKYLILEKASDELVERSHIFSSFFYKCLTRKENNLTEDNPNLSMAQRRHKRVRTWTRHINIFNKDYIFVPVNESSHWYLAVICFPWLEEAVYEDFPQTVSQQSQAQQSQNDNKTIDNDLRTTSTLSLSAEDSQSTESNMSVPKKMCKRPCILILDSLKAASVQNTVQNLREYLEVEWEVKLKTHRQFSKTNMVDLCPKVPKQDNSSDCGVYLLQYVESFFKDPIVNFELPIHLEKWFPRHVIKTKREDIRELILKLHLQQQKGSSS

[9] = molecular target: T4, Sentrin-specific protease 6 (Homo sapiens, UniProt Q9GZR1); test: SAR Analysis of small molecule inhibitors of Sentrin-specific protease 6 (SENP6) using a Luminescent assay. [Related pubchem assays (depositor defined):AID2582, AID2599]; format: functional
T4 sequence (Q9GZR1 whole entry): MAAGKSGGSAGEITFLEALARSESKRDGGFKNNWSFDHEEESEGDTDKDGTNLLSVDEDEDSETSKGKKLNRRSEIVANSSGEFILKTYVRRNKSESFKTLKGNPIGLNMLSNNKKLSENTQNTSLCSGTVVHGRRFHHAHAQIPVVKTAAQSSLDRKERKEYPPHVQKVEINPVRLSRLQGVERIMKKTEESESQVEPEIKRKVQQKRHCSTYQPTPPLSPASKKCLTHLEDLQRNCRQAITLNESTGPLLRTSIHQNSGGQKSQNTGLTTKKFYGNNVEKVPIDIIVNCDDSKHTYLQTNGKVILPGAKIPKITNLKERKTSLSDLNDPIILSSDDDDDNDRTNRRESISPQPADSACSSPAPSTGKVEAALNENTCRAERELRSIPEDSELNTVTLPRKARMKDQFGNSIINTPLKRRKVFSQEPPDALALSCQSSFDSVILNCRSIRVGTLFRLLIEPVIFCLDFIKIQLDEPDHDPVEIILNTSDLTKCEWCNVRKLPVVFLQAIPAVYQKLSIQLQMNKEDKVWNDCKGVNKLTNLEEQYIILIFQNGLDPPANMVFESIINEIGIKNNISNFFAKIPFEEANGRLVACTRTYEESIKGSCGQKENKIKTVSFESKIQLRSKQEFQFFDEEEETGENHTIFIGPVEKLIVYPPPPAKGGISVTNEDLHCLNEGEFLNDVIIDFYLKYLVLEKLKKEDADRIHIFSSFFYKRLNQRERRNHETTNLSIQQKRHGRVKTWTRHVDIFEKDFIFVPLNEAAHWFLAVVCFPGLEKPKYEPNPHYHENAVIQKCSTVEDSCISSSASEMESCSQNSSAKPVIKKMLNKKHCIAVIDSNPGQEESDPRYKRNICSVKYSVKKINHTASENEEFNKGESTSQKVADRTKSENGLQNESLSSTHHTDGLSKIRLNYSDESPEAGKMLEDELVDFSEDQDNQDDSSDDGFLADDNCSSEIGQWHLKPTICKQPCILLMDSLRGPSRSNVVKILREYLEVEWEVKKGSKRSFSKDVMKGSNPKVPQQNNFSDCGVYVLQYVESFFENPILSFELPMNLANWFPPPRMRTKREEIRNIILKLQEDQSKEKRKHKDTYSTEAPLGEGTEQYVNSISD

Caspase-3 = molecular target: T5, Caspase-3 (Homo sapiens, UniProt P42574); test: SAR Analysis of small molecule inhibitors of Sentrin-specific proteases (SENPs) using a Caspase-3 Selectivity assay. [Related pubchem assays (depositor defined):AID2540, AID2599, AID434973, AID489001]; format: functional
T5 sequence (P42574 whole entry): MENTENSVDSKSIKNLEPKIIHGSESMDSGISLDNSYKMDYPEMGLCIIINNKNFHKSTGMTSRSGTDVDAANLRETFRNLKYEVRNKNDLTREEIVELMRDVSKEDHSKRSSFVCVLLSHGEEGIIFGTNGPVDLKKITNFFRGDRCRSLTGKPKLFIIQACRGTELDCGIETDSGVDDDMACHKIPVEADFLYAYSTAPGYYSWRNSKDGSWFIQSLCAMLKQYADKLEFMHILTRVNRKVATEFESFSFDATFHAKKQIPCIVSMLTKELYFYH

[10] = molecular target: T6, Sentrin-specific protease 8 (Homo sapiens, UniProt Q96LD8); test: SENP8 protease inhibitors, SAR follow-up, biochemical, luminescence (AID 504501); format: functional
T6 sequence (Q96LD8 whole entry): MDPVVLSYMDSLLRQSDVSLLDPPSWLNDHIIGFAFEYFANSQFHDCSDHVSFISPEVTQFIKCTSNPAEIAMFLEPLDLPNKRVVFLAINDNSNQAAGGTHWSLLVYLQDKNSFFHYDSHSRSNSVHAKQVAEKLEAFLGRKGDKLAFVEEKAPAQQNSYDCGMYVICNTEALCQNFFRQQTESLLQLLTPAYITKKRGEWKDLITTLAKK

[11] = molecular target: T3, Sentrin-specific protease 7; test: SENP7 protease inhibitors, SAR follow-up, biochemical, luminescence (AID 504497); format: functional
[12] = molecular target: T6, Sentrin-specific protease 8; test: SENP8 protease inhibitors, SAR follow-up, biochemical, luminescence, set 2 (AID 588601); format: functional
MDCK = test: antiviral activity against H1N1 influenza, dose response, cell-based, strain KY136 (AID 540257); format: functional; details: Canis lupus familiaris
[13] = molecular target: FAD-linked sulfhydryl oxidase ALR (Homo sapiens, UniProt P55789); test: inhibitors of human ALR sulfhydryl oxidase, dose response, biochemical, H2O2 detection, luminescence, cherry-pick (AID 493248)
Sequence of FAD-linked sulfhydryl oxidase ALR (P55789 whole entry): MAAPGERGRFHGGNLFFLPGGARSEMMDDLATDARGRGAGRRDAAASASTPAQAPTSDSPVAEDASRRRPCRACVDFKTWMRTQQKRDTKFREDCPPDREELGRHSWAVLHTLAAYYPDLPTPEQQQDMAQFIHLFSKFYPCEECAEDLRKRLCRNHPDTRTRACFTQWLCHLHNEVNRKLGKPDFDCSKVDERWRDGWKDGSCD

Keap1/Nrf2 = Keap1/Nrf2 (Homo sapiens, UniProt Q14145); test: Keap1-Nrf2 protein-protein interaction inhibitors, dose response, biochemical, fluorescence polarization, cherry-picked samples (AID 588683)
Sequence of Keap1/Nrf2 (Q16236 whole entry): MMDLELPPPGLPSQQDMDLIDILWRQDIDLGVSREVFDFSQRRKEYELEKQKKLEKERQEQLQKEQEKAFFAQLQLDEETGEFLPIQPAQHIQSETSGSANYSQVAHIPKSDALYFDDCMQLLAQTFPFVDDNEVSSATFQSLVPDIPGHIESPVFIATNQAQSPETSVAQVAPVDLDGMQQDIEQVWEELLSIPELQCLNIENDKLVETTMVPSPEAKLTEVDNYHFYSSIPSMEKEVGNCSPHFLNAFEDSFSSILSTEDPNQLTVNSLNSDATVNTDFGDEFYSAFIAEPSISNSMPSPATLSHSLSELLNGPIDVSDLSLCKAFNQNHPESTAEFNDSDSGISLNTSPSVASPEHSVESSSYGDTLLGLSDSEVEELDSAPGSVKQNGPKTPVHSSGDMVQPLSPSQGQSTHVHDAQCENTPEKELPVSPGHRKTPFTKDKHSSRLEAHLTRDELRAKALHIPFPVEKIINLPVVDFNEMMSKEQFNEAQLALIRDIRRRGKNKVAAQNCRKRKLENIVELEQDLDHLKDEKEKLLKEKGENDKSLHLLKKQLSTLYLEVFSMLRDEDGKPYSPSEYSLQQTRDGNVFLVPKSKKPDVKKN
Sequence of Keap1/Nrf2 (Q14145 whole entry): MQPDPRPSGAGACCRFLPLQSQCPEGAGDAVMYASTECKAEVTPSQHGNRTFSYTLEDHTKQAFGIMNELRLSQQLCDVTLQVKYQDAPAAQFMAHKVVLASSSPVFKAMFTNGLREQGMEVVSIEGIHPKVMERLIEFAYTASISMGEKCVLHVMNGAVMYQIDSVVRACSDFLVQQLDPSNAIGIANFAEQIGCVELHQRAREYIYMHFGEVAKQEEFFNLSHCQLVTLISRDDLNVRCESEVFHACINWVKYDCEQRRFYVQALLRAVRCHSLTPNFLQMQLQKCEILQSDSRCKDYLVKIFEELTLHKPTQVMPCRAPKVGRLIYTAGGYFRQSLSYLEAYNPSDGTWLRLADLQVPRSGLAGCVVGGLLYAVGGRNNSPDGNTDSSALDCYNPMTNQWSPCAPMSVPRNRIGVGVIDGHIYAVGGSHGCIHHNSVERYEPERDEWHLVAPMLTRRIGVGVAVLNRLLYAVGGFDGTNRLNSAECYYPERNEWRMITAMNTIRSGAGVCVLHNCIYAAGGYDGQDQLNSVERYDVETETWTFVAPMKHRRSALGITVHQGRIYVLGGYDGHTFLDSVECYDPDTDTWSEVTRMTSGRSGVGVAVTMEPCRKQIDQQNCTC

[14] = molecular target: T7, Corticotropin-releasing factor receptor 2/Corticotropin-releasing factor-binding protein (Homo sapiens, UniProt P24387+Q13324); test: activators of CRF receptor 2 with binding protein – uHTS hits, confirmation (AID 602473); format: functional; details: read-out: EC50_Mean
T7 sequence (Q13324 whole entry): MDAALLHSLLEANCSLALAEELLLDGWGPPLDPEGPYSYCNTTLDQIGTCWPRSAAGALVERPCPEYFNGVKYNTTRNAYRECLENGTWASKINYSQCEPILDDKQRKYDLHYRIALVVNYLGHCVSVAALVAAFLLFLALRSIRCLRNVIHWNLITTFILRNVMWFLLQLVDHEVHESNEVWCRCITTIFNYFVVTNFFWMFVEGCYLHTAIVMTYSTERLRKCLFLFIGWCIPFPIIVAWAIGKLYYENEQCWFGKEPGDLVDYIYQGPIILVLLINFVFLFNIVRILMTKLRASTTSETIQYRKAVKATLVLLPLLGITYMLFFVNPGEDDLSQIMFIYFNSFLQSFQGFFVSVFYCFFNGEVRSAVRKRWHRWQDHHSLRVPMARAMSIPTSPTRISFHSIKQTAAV
T7 sequence (P24387 whole entry): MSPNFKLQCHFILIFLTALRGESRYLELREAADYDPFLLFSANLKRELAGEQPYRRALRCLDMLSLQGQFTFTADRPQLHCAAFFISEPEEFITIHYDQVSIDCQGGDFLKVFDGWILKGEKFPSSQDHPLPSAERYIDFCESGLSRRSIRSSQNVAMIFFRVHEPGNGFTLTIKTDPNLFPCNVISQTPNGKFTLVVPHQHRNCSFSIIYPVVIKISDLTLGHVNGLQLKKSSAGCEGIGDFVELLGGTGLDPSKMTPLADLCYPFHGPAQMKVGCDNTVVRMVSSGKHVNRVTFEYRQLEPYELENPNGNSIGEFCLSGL

[15] = molecular target: UDP-galactopyranose mutase (Mycobacterium tuberculosis, UniProt P9WIQ1); test: Inhibitors of Mycobacterium tuberculosis UDP-galactopyranose mutase (UGM) enzyme Measured in Biochemical System Using Plate Reader - 2105-02_Inhibitor_Dose_CherryPick_Activity. [Related pubchem assays (depositor defined):AID504439]
Sequence of UDP-galactopyranose mutase (P9WIQ1 whole entry): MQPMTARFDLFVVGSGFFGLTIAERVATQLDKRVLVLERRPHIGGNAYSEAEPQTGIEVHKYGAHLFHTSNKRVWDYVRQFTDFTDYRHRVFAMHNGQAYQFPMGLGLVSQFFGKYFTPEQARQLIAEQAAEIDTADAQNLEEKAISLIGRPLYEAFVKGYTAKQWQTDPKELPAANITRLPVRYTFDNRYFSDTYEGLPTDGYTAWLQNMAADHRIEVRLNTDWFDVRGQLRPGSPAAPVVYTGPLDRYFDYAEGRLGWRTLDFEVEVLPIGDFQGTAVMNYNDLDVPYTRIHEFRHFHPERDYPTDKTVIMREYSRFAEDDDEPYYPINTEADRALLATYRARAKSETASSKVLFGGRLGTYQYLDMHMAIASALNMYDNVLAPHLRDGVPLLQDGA

SMILES: Cc1ccc(N(C)S(=O)(=O)c2cccc(C(=O)Nc3nc4ccccc4[nH]3)c2)cc1
- AC50 [1]: 32.2 µM (active)
- EC50 (Streptococcus): 17.4 µM (active)
- AC50 [2]: 4.1 µM (active)
- EC50 [3]: 1.71 µM (active)
- EC50 (Streptokinase A): > 150 µM (not active)

SMILES: NS(=O)(=O)c1cc(C(=O)Nc2ccc3c(c2)CCC3)ccc1Cl
- IC50 [4]: > 100 µM (inactive)
- IC50 [5]: > 100 µM (inactive)
- IC50 [6]: > 100 µM (inactive)
- CC50 [7]: 39 µM (active)

SMILES: O=C(Cn1c2ccccc2c2nc3n(c(=O)c21)CCS3)N1CCCC1
- AC50 (Candida albicans): 2.91 µM (active)

SMILES: Cc1cccc(-c2noc(/C=C/c3ccccc3)n2)c1
- IC50 [8]: 4.14 µM (active)
- IC50 [9]: 17 µM (active)
- IC50 (Caspase-3): 11 µM (active)
- IC50 [10]: > 99 µM (inactive)
- IC50 [11]: 4.9 µM (active)
- IC50 [12]: 3.48 µM (active)

SMILES: Cc1ccc(N2C(=O)C(CC(=O)Nc3cccc(F)c3)N(C3CC3)C2=O)cc1 (stereo unspecified)
- IC50 (MDCK): 52.3 µM (active)
- AC50 [13]: < 0.014 µM (active)

SMILES: CN1/C(=C\C=C(C#N)C#N)C(C)(C)c2ccccc21
- AC50 (Keap1/Nrf2): 28.7 µM (active)
- EC50 [14]: 10.8 µM (active)
- AC50 [15]: 114 µM (active)

From ChEMBL document CHEMBL1201862, “PubChem BioAssay data set” (2004)
